“Also recorded” adds a separate entry of the source.
Experiments:
[1] = system: Vα14 NKT cells; details: mice; cited from earlier work
[2] = independently of dosage; cited from earlier work
[3] = system: P. yoelii sporozoites; assay: Parasite rRNA in the liver after live sporozoite challenge of immunized mice (real-time RT-PCR)
[4] = system: P. yoelii sporozoites; assay: Anti-sporozoite antibody titers by indirect immunofluorescence assay (IFA); assay type: in vivo, Plasmodium yoelii; details: γ-spz-immunized BALB/c mice
Description: Sera of immunized mice were obtained just before their challenge with sporozoites, and their Ab titers were measured using P. yoelii sporozoites in an indirect immunofluorescence assay (IFA). In brief, P. yoelii sporozoites were placed on multispot glass slides, and air-dried. After 1 hour of incubation with the sera, diluted in PBS containing 1% BSA, the slides were washed with PBS and incubated 1 hour with FITC- labelled affinity purified goat anti-mouse Ab (Kirkegaard & Perry Laboratories, Gaithersburg, Md.). The slides were then washed and mounted in PBS containing 50% (v/v) glycerol and 1% (w/v) Evans blue to reduce bleaching. The highest serum dilution resulting in fluorescence of the sporozoites was considered to be the IFA titer. Measurement of Ab Isotype Level by ELISA.
(§1) The present inventors also determined the titers of anti-sporozoite antibodies using an immunofluorescence assay(IFA) of air-dried P. yoelii sporozoites, as well as the titers of antibody against the circumsporozoite (CS) protein, the major surface antigen of sporozoites, using ELISA. The antibody titers were identical among the groups of γ-spz-immunized mice regardless of whether or not they received α-GalCer (FIG. 1A).

[5] = system: B 16-bearing mice; details: cited from earlier work
[6] = independently of dosage; cited from earlier work; remark: listed apart in the source
[7] = system: p18-specific CD8+ T cells (p18 protein of HIV); assay: ELISPOT assay of HIV p18-specific CD8+ T cells from immunized mice; details: mice immunized with CD8+ T cell epitope […] of p18 of HIV
Description: An ELISPOT assay was performed to determine the number of CS-specific CD4+ and CD8+ T cells, producing IFN-γ or IL-4 (Miyahira et al., J. Immunol. Methods, 181: 45-54, 1995). Briefly, 96 well nitrocellulose plates (Millipore, Bedford, Mass.) were coated with anti-mouse IFN-γ monoclonal antibodies (mAb), or anti-mouse IL-4 mAb. After overnight incubation at room temperature, the wells were washed repeatedly and blocked with culture medium for 1 hour at 37° C. […] After irradiating the peptide-pulsed target cells, the cells were added to the ELISPOT wells. Untreated target cells were used as negative controls. Serially diluted lymphocytes isolated from the spleen or lymph nodes of immunized mice were co-cultured with 1.5×10^5 target cells in the ELISPOT wells. After incubating the plates 24 h for IFN-γ detection or 48 h for IL-4 detection at 37° C. and 5% CO2, the plates were treated as previously described (Rodrigues et al., J. Immunol., 158: 1268-1274, 1997), and the number of spots corresponding to IFN-γ and IL-4 secreting cells determined.

[8] = in vivo; cited from earlier work
[9] = system: P. berghei; details: mice; α-GalCer alone; cited from earlier work
[10] = system: nucleoprotein (NP) of the influenza A virus; assay: CD8+ T cell anti-influenza response after recombinant Sindbis virus expressing NP epitope; assay type: in vivo; details: suboptimal dose (10^5 p.f.u.) recombinant Sindbis virus expressing epitope TYQRTRALV, with α-GalCer
From the text: In yet another specific embodiment, an antigen of the invention is influenza A virus-specific.

[11] = system: P. yoeli; details: α-GalCer alone, cited from earlier work
[12] = system: P. yoelii sporozoites; assay: Protection against blood infection (parasitemia in thin blood smears) after challenge with 50 viable sporozoites
From the text: To further assess the adjuvant activity of α-GalCer co-administered with vaccines, parasitemia (i.e., the presence of parasites in the blood) was monitored daily by microscopic examination of thin blood smears. Briefly, BALB/c mice were immunized either intravenously with 1×10^4 γ-spz or subcutaneously with 1×10^7 p.f.u. of AdPyCS, doses which otherwise fail to confer protection against malaria, with or without α-GalCer treatment. Two weeks later, all mice were challenged with 50 viable P. yoelii sporozoites, and determined the occurrence of blood infection by monitoring parasitemia.
To determine the adjuvant effect of α-GalCer on the duration of protection against malaria, parasitemia (i.e., the presence of the parasites in the blood) was monitored daily via microscopic inspection of thin blood smears in two separate experiments. In experiment 1, two groups of mice, one treated with α-GalCer and the other untreated, were immunized with 1×10^4 γ-spz, a dose that fails to confer protection against malaria 2 weeks after immunization. Two weeks later, all mice were challenged with 50 viable P. yoelii sporozoites, and the occurrence of blood infection was determined by monitoring parasitemia. In experiment 2, two groups of mice, one treated with α-GalCer and the other untreated, were immunized with 1×10^5 γ-spz, a dose that induces complete protection 2 weeks after immunization but not 4 weeks after. Four weeks later, these immunized mice, as well as naive controls were challenged with 50 live sporozoites, and the course of infection was determined as described above.

[13] = system: circumsporozoite (CS) protein; assay: Anti-CS antibody titers and isotypes by ELISA; assay type: in vivo, P. yoelii; details: γ-spz-immunized mice
Description: Sera of immunized mice were obtained prior to their challenge with sporozoites, and the levels of CS-specific IgM, IgG1, IgG2a, and IgE isotypes were measured using the Mouse Hybridoma Subtyping Kit (Boehringer Mannheim, Mannheim, Germany). Briefly, plates were coated with […] of B cell epitope (QGPGAP)2 (Charoenvit et al., J. Immunol., 146: 1020-1025, 1991) of the P. yoelii CS protein, blocked with PBS containing 1% BSA, and incubated for 1 hour with 1:5 dilution of sera from immunized and non-immunized mice. The plates were then washed and anti-mouse IgM, IgG1a, IgG2a (Boehringer Mannheim) and IgE (Southern Biotechnology Associates, Inc., Birmingham, Ala.) conjugated to peroxidase were added, followed by incubation with the substratre 2,2-Azino-di-[3-ethylbenzthiazoline sulfonate (6)], according the manufacture's instruction.
as §1

[14] = mouse, in vivo; cited from earlier work
[15] = BALB/c mice, 2 μg α-GalCer, 1×10^4 γ-spz i.v.
[16] = BALB/c mice, i.v. 1 × 10^4 γ-spz or s.c. 1 × 10^7 p.f.u. AdPyCS, with or without α-GalCer, challenge with 50 viable P. yoelii sporozoites two weeks later

CCCCCCCCCCCCCCCCCCCCCC[C@@H](O)C(=O)N[C@@H](COC1OC(CO)C(O)C(OC2OC([C@H](O)CO)C(O)C2O)C1O)[C@H](O)[C@H](O)CCCCCCCCCCCCCC (stereo partly drawn) [Galβ1-3Galα1-1′Cer, (2S,3S,4R)-2-amino-1-O-(β-D-galactofuranosyl-(1-4)-α-D-galactopyranosyl)-N-[(R)-2-hydroxytetracosanoyl]-1,3,4-octadecanetriol]
proliferation of Vα14 NKT cells, compared with α-GalCer [1]: stimulate proliferation of Vα14 NKT cells in mice, although with lower efficiency

CCCCCCCCCCCCCCCCCCCCCCCCCC(=O)N[C@@H](COC1OC(COC2OC(CO)C(O)C(O)C2O)C(O)C(O)C1O)[C@H](O)[C@H](O)CCCCCCCCCCCCCC (stereo partly drawn) [Galα1-6Galα1-1′Cer, (2S,3S,4R)-2-amino-1—O-(α-D-galactopyranosyl-(1-6)-α-D-galactopyranosyl)-N-hexacosanoyl-1,3,4-octadecanetriol]
proliferation of Vα14 NKT cells, compared with α-GalCer [1]: stimulate proliferation of Vα14 NKT cells in mice, although with lower efficiency

CCCCCCCCCCCCCCCCCCCCCCCCCC(=O)N[C@@H](CO[C@H]1O[C@H](CO)[C@H](O)[C@H](O)[C@H]1O)[C@H](O)[C@H](O)CCCCCCCCCCCCCC [α-GalCer, (2S,3S,4R)-1—O-(α-D-galactopyranosyl)-2-(N-hexacosanoylamino)-1,3,4-octadecanetriol]
toxicity in monkeys [2]: does not induce toxicity
parasite load in the livers, times smaller than with γ-spz alone ([3]; BALB/c mice, 2 μg α-GalCer with 1×10^4 γ-spz i.v., challenge 1×10^4 live sporozoites two weeks later): 10 times
level of protective anti-malaria immunity, α-GalCer on the same day as γ-spz [3, 15]: highest level of protective anti-malaria immunity
level of protective immunity, α-GalCer two days after γ-spz immunization [3, 15]: did not significantly enhance
protective immunity, α-GalCer two days prior to γ-spz immunization [3, 15]: completely abolished; also recorded: almost completely abolishes
protection augmented relative to control, AdPyCS ([3]; BALB/c mice, s.c. sub-optimal dose AdPyCS with α-GalCer same day): ~10 times
protection enhanced, SIN(Mal) ([3]; BALB/c mice, s.c. sub-optimal dose SIN(Mal) with α-GalCer same day): 3 times
γ-spz-induced protective immunity in CD1d-deficient mice ([3]; CD1d-deficient mice, BALB/c background, 1×10^4 γ-spz with α-GalCer): failed to enhance
γ-spz-induced protective immunity in Jα281-deficient mice ([3]; Jα281-deficient mice (lack Vα14 NKT cells), 1×10^4 γ-spz with α-GalCer): failed to enhance
titers of anti-sporozoite antibodies (IFA), α-GalCer vs no α-GalCer [4]: identical
mice bearing tumors cured ([5]; 100 μg/kg KRN7000): 60%
antimetastatic activities vs OK432, Lentinan and Mitomycin C ([5]; B 16-bearing mice): stronger antimetastatic activities
toxicity in rodents [6]: does not induce toxicity
level of HIV-specific CD8+ T cell response vs immunized without α-GalCer [7]: ~3 times
complications in human trials [8]: without a notable complication
anti-malaria activity (inhibition of intra-hepatocytic stages), P. berghei [9]: strong anti-malaria activity
CD8+ T cell anti-influenza response [10]: significantly enhances
anti-malaria activity (inhibition of intra-hepatocytic stages), P. yoeli ([11]; mice): strong anti-malaria activity
parasite development in the liver of mice lacking either IFN-γ or the IFN-γ receptor [11]: unable to inhibit parasite development
parasites in the liver, α-GalCer two days prior to challenge with live sporozoites [11]: completely eliminates the parasites from the liver
protection against malaria in mice lacking either CD1d or Vα14 NKT cells [11]: failed to protect
α-GalCer-treated, sporozoite-immunized mice protected, experiment 1 ([12]; 1×10^4 γ-spz, challenge with 50 viable sporozoites two weeks later): nine out of ten
α-GalCer-treated, sporozoite-immunized mice protected, experiment 2 ([12]; 1×10^5 γ-spz, challenge with 50 live sporozoites four weeks later): nine out of ten
% protection (no parasitemia) [12, 16]: 0%
Number of mice protected/number challenged [12, 16]: 0/30
α-GalCer-treated, γ-spz-immunized mice protected ([12]; BALB/c, 1×10^4 γ-spz i.v., challenge 50 viable sporozoites two weeks later): 28 out of 30
protective effect of sub-optimal dose of AdPyCS with α-GalCer ([12]; BALB/c, 1×10^7 p.f.u. AdPyCS s.c., challenge 50 viable sporozoites): strongly enhanced
protection by α-GalCer alone ([12]; BALB/c, no immunogen, challenge 50 viable sporozoites): failed to protect
IgE, IgG1, IgG2a or IgM isotype profiles of anti-CS antibodies, α-GalCer-treated vs untreated [13]: no significant differences
titers of antibody against the CS protein (ELISA), α-GalCer vs no α-GalCer [13]: identical
liver enzyme activities [14]: transient elevation of liver enzyme activities

CCCCCCCCCCCCCCCCCCCCCC[C@@H](O)C(=O)N[C@@H](COC1OC(CO)C(O)C(O)C1OC1OC(CO)C(O)C(O)C1O)[C@H](O)[C@H](O)CCCCCCCCCCCCCC (stereo partly drawn) [Galα1-2Galα1-1′Cer, (2S,3S,4R)-2-amino-1-O-(α-D-glucopyranosyl-(1-2)-α-D-galactopyranosyl)-N-[(R)-2-hydroxytetracosanoyl]-1,3,4-octadecanetriol]
proliferation of Vα14 NKT cells, compared with α-GalCer [1]: stimulate proliferation of Vα14 NKT cells in mice, although with lower efficiency

CCCCCCCCCCCCCCCCCCCCCCCCCC(=O)N[C@@H](CO[C@H]1O[C@H](CO)[C@@H](O)[C@H](O)[C@H]1O)[C@H](O)[C@H](O)CCCCCCCCCCCCCC [α-GlcCer, (2S,3S,4R)-1—O-(α-D-glucopyranosyl)-N-hexacosanoyl-2-amino-1,3,4-octadecanetriol]
proliferation of Vα14 NKT cells, compared with α-GalCer [1]: stimulate proliferation of Vα14 NKT cells in mice, although with lower efficiency
